Measured values: patent US20140294856A1, “COMBINATION TREATMENT COMPRISING A HDAC6 INHIBITOR AND AN AKT INHIBITOR” (priority 2011, published 2014)

Key:
A549 cells = experiment: Impact of BSO (GSH depletion) on growth inhibition, SRB assay; format: cell-based; settings: 10 μM BSO for 24 hours
HCT116 cells = experiment: Combination studies, SRB assay, combination index (CalcuSyn); format: cell-based, human
[1] = test system: HDAC from HeLa cell extract; experiment: Irreversible HDAC inhibition, HeLa nuclear extracts; format: biochemical
Protocol: FIG. 1. HDAC-C1A irreversible activity. A. […] inhibitory activity of HDAC-C1A was tested using HeLa nuclear extracts and compared to the negative (reversible) control HDAC-C1B. B Growth inhibitory effect of the different compounds in HCT-116 cells at indicated time and compared to growth inhibitory after 72 hours of incubation.
HSP90 protein expression was not altered (FIG. 2).

HDAC1 = HDAC1 (Homo sapiens, UniProt Q13547); experiment: Enzyme inhibition activity, Fluor-de-Lys kit; format: biochemical
HCT116 xenograft [2] = experiment: [18F]FLT-PET tumour uptake; format: in vivo, mice
Protocol: FIG. 6. [18F]-FLT uptake at 24 h and 48 h following a single injection I.P. of HDAC-C1A at 40 mg/kg in HCT116 xenograft model. A. PET/CT (bottom) and corresponding CT (top) images of the [18]-FLT uptake. […] The tumour is indicated by an arrow. B. Area under the curve data. The results are the mean+/−SEM of at least 4 animals per group.
FIG. 13. […] A. relative tumour volume to day 1. […] B. Corresponding body weights throughout the course of the experiment. […] C. Time activity curve represent [18F]FLT uptake over 60 minutes. Results are mean of at least 3 animals. D. Area under the curve, [18F]FLT uptake in the tumour over 60 minutes. E. NUV60, [18F]FLT uptake in the tumour at 60 minutes. […] The levels of total AKT are represented as loading control.
FIG. 16. [18F]FLT uptake following treatment with BEZ235 and in combination with HDAC-C1A after 48 hours in a HCT116 xenograft model. Mice were treated with either BEZ235 alone at 20 mg/kg/day for 2 days P.O., with 1HDACC1A at 20 mg/kg/day for 2 days I.P. or with a combination HDAC-C1A (20 mg/kg/day for 1 or 2 days)+BEZ-235 (20 mg/kg/day for 1 or 2 days). BEZ235 was given first and 30 min later, mice received an injection of HDAC-C1A. A. time activity curve represent [18F]FLT uptake over 60 minutes. Results are mean of at least 3 animals. B. Area under the curve, [18F]FLT uptake in the tumour over 60 minutes. C. NUV60, [18F]FLT uptake in the tumour at 60 minutes. D. Cross section (axial plane) of mice representative of different treatment cohorts. The top pictures show [18F]FLT uptake pictures (PET/CT), the bottom represent the corresponding CT scan. The arrows point the tumour.
We also assessed the potential of [^18F]fluorothymidine positron emission tomography ([^18F]FLT-PET) to measure early response to HDAC-C1A treatment in HCT116 xenograft bearing mice (FIG. 6). There was a 2-fold decrease in tumour [^18F]FLT uptake in animals treated continuously for 48 h compared to vehicle treated controls; the area under the normalized [^18F]FLT time versus activity curve was 117±6.9 before treatment and decreased to 106±5.5 (P=0.02) at 24 hours and 54±5 (P=0.0001) at 48 hours after initiating treatment (FIG. 6.B).
The efficacy of the combination HDAC-C1A (20 mg/kg/day) and BEZ235 ([…]) could be monitored with [^18F]FLT-PET in HCT116 tumour bearing mice as early as 24H-48H. There was a 1.7-fold decrease in tumour [^18F]FLT uptake in animals treated continuously for 24 h-48 h compared to vehicle treated controls; the area under the normalized [^18F]FLT time versus activity curve was 542±17 before treatment and decreased to 312±22 (P=0.0002) at 24-48 hours after initiating treatment (FIG. 16.B).

RAD51 = RAD51 mRNA and protein expression; format: cell-based; settings: in vitro and in vivo
A2780 = experiment: Phospho-AKT levels by western blotting; format: cell-based, human; settings: ovarian cancer cell line A2780
MCF7 = experiment: Phospho-AKT levels by western blotting; format: cell-based; settings: breast cancer cell line MCF7
HCT116 xenograft [3] = experiment: Biomarkers screening in HCT116 xenograft tumours; format: in vivo, mice
Protocol: (§1) FIG. 5. Anti-tumour activity of HDAC-C1A in A2780 (A & B) and HCT116 (C & D) xenograft models (Tumours volumes relative to tumour volume at day 1 (A & C) and corresponding body weight (relative to body weight at day 1) (B & D)). E. Biomarkers screening at early time points following a single injection of HDAC-C1A in HCT116 xenograft at 40 mg/kg compared to a continuous 14 days treatment at the indicated dose. Tumours were excised 6 hours following the last injection.
(§2) The drug was stable after oral, parenteral and intravenous administration for 24 h (last time point examined). […] The Cma and AUC0-24h following i.p. injection (20 mg/kg) were 3.2 μg/mL and 11.2 μg/mL*h, respectively. […] The acid instability of HDAC-C1A could therefore be improved by enteric coating as a means to avoid breakdown in the stomach. […] HDAC-C1A was also tested in HCT116 human colon cancer xenograft model using a refined dose and scheduling. […] This dose was non-toxic (no reduction in body weight) (FIG. 5.D). The acetylated form of α-tubulin (biomarker of response to HDAC6 inhibition) could be observed after 14 days of treatment and could be detected as early as 6 hours after the 1st injection (FIG. 5.E.). The acetylated form of Histone 3 (biomarker of response of class I histones) could be observed as early as 2 hours after the 1st injection and remain after 14 days of treatment (FIG. 5.E).

[4] = test system: A2780 human ovarian cancer xenograft; experiment: Anti-tumour activity in A2780 xenograft model; format: in vivo
Protocol: as §1, §2

HDAC1, sequence (Q13547 whole entry): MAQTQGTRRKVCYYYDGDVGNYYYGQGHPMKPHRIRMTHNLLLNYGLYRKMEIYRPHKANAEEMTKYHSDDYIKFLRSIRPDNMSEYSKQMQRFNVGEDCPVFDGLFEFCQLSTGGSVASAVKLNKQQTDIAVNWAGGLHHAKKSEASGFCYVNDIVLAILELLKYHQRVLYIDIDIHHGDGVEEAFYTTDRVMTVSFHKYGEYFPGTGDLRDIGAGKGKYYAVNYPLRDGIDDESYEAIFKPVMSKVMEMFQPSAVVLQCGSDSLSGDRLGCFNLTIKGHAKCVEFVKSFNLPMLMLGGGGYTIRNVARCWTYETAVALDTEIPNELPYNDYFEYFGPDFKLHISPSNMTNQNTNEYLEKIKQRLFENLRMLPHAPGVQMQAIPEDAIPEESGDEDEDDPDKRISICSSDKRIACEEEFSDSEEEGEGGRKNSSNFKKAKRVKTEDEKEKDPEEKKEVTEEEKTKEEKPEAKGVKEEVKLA

**Q.** Which “impact of BSO on growth inhibition (GI50 ratio)” value (A549 cells) does the source give for CC(/C=C/C(=O)NO)=C\c1ccc(NS(=O)(=O)c2ccc(N(CCCl)CCCl)cc2)cc1 [HDAC-C1A] here?
**A.** No difference

**Q.** What about the “concentration of LY-294002 needed to synergise” value (HCT116 cells) of the same compound?
**A.** 1 µM

**Q.** What about the “lowest concentration synergising with rapamycin” value (HCT116 cells; ED50) of the same compound?
**A.** ≥ 1.9 µM

**Q.** And the “mode of HDAC inhibition” value [1]?
**A.** irreversibly inhibited

**Q.** What about the “fold more specific for HDAC6 compared with HDAC1” value (HDAC1) of the same compound?
**A.** approximately 17 fold

**Q.** What about the “[18F]FLT-PET in comparison to control animals” value (HCT116 xenograft [2]; 48 H, HDAC-C1A 40 mg/kg combined with API-2 1 mg/kg) of the same compound?
**A.** unremarkable

**Q.** And the “area under the normalized [18F]FLT time versus activity curve” value (HCT116 xenograft [2]; 24 hours after initiating treatment, 117±6.9 before treatment)?
**A.** 106±5.5

**Q.** What about the “area under the normalized [18F]FLT time versus activity curve” value (HCT116 xenograft [2]; 48 hours after initiating treatment, 117±6.9 before treatment) of the same compound?
**A.** 54±5

**Q.** What about the “fold decrease in tumour [18F]FLT uptake vs vehicle” value (HCT116 xenograft [2]; HDAC-C1A 20 mg/kg/day combined with BEZ235 25 mg/kg/day, 24 h-48 h) of the same compound?
**A.** 1.7 fold

**Q.** And the “area under the normalized [18F]FLT time versus activity curve” value (HCT116 xenograft [2]; HDAC-C1A combined with BEZ235, 24-48 hours, 542±17 before treatment)?
**A.** 312±22

**Q.** And the “fold decrease in tumour [18F]FLT uptake vs vehicle” value (HCT116 xenograft [2]; treated continuously for 48 h, 40 mg/kg)?
**A.** 2 fold

**Q.** And the “RAD51 mRNA and protein expression” value (RAD51)?
**A.** did not increase

**Q.** What about the P-AKT levels (A2780) of the same compound?
**A.** increased

**Q.** And the P-AKT levels (MCF7)?
**A.** increased

**Q.** And the “anti-apoptotic factor Bcl2” value (HCT116 xenograft [3]; after 48 hours)?
**A.** down-regulated

**Q.** And the “earliest detection of acetylated Histone 3 after 1st injection” value (HCT116 xenograft [3]; single injection 40 mg/kg)?
**A.** 2 h

**Q.** What about the “earliest detection of acetylated α-tubulin after 1st injection” value (HCT116 xenograft [3]; single injection 40 mg/kg) of the same compound?
**A.** 6 h

**Q.** And the body weight loss ([4]; 80 mg/kg/day, in some animals, at 7 days, treatment stopped)?
**A.** 10%

**Q.** What about the “Tumour Growth Delay (TGD2x)” value ([4]; i.p. 80 mg/kg/day) of the same compound?
**A.** 3 ± 0.3 days

**Q.** What about the “Tumour Growth Inhibition (TGI) compared with vehicle” value ([4]; i.p. 80 mg/kg/day) of the same compound?
**A.** 74%
